Measured values taken from the Deep4Chem optical property database.

Experiment: photoluminescence quantum yield (fraction); solvent given as SMILES

With `CCn1c2ccccc2c2ccc(C#N)cc21` the photoluminescence quantum yield (in C1CCCCC1) was 0.12.
Work on `N[C@@H](Cn1nnc2cc(-c3ccc4c(c3)OCO4)ccc21)C(=O)O` yielded a photoluminescence quantum yield (in CO) of 0.02.
With `N#CC1=CC(C#Cc2ccccc2)=CC(C#N)=P1(c1ccccc1)c1ccccc1` the photoluminescence quantum yield (in ClC(Cl)Cl) was 0.61.
`CCCCOC(=O)c1cc(Cl)c2c3c(Cl)cc4c5c(cc(Cl)c(c6c(Oc7ccc(OC)cc7)cc(C(=O)OCCCC)c1c26)c53)C(=O)N(c1c(C(C)C)cccc1C(C)C)C4=O` showed a photoluminescence quantum yield (in Cc1ccccc1) of 0.12.
`CC(C)[Si](C#Cc1c2cc3ccccc3cc2c(C#Cc2ccc(C(F)(F)F)cc2)c2cc3ccccc3cc12)(C(C)C)C(C)C` showed a photoluminescence quantum yield (in ClCCl) of 0.06.
In the case of `C(=C\c1c[nH]c2ccc(Oc3ccccc3)cc12)/C1=[NH+]c2cccc3cccc1c23`, the photoluminescence quantum yield (in CO) is reported as 0.0644.
`COc1cc(OC)cc(C2=[O+][B-](F)(F)OC(c3ccc4cc(OC)ccc4c3)=C2)c1` showed a photoluminescence quantum yield (in CC#N) of 0.22, a photoluminescence quantum yield (in CC(C)=O) of 0.37 and a photoluminescence quantum yield (in CCCCCC) of 0.26. It also gave a photoluminescence quantum yield (in Cc1ccccc1) of 0.79 and a photoluminescence quantum yield (in ClCCl) of 0.95.
`c1ccc2c(-c3ccc4sc5ccc(-c6c7ccccc7cc7ccccc67)cc5c4c3)c3ccccc3cc2c1` gave a photoluminescence quantum yield (in C1CCCCC1) of 0.47, a photoluminescence quantum yield (in CC#N) of 0.5 and a photoluminescence quantum yield (in ClCCl) of 0.57.
In the case of `O=C(O)c1cc2c(cc3ccc4cccc5ccc2c3c45)[nH]1`, the photoluminescence quantum yield (in CCOC(C)=O) is reported as 0.82.
For `Oc1ccc2ccccc2c1/C=N/C1CCCCC1/N=C/c1c(O)ccc2ccccc12` (configuration not stated), the photoluminescence quantum yield (in CC#N) was 0.078.
In the case of `CC(C)(C)c1cc(/C2=C3\C=CC(=N3)/C(c3ccc([N+](=O)[O-])cc3)=c3/cc/c([nH]3)=C(\c3ccc([N+](=O)[O-])cc3)C3=N/C(=C(/c4cc(C(C)(C)C)cc(C(C)(C)C)c4)c4cc2c[nH]4)C=C3)cc(C(C)(C)C)c1`, the photoluminescence quantum yield (in CC(=O)N(C)C) is reported as 0.024.
Work on `COC(=O)c1ccc(-c2cc3ccc4cccc5ccc(c2)c3c45)cc1` yielded a photoluminescence quantum yield (in Cc1ccccc1) of 0.43.
Work on `CCc1c(C)c2n(c1C)[B-](F)(F)[N+]1=C(C=C3c4ccccc4-c4ccccc43)C=CC1=C2C` yielded a photoluminescence quantum yield (in C1CCCCC1) of 0.73.
For `S=P1(c2ccccc2)c2cccc3c4c5ccccc5c5ccccc5c4c4ccc1n4c23` (configuration not stated), the photoluminescence quantum yield (in ClCCl) was 0.24.
With `CC(C)[Si](C#Cc1ccc(C#C[Si](C(C)C)(C(C)C)C(C)C)c2nc3c4ccccc4c(=O)c4ccccc4c3nc12)(C(C)C)C(C)C` the photoluminescence quantum yield (in ClCCl) was 0.08.
With `COc1cc2c3sc4ccccc4c3c3cncnc3c2c(OC)c1OC` the photoluminescence quantum yield (in ClCCl) was 0.09.
For `COc1ccc(-c2cnc(-c3cccnc3)o2)cc1OC`, the photoluminescence quantum yield (in ClCCl) was 0.98.
With `CCn1c2ccccc2c2cc(C#Cc3cc(C#Cc4ccc5c(c4)c4ccccc4n5CC)nc(S(C)(=O)=O)n3)ccc21` the photoluminescence quantum yield (in C1CCOC1) was 0.74, the photoluminescence quantum yield (in CCOC(C)=O) was 0.75 and the photoluminescence quantum yield (in CN(C)C=O) was 0.59. The photoluminescence quantum yield (in Cc1ccccc1) was 0.81 and the photoluminescence quantum yield (in ClCCl) was 0.46.
For `CCC1=C(C)C2=C(c3c4ccccc4cc4ccccc34)c3c(C)c(CC)c(C)n3[B-](F)(F)[N+]2=C1C`, the photoluminescence quantum yield (in CC#N) was 0.579, the photoluminescence quantum yield (in CCCCCC) was 0.871 and the photoluminescence quantum yield (in CCO) was 0.778. For the same molecule, the photoluminescence quantum yield (in CN(C)C=O) was 0.705, the photoluminescence quantum yield (in Cc1ccccc1) was 0.806 and the photoluminescence quantum yield (in ClCCl) was 0.799.
With `CC/[NH+]=c1\cc2oc3cc(NCCC(=O)NCCCCC(NC(C)=O)C(=O)OC)c4ccccc4c3nc-2cc1C` (configuration not stated) the photoluminescence quantum yield (in CCO) was 0.32 and the photoluminescence quantum yield (in O) was 0.46.
In the case of `CC(C)(C)c1ccc2c(c1)c1cc(C(C)(C)C)ccc1n2-c1ccc(C#Cc2ccc(C#Cc3ccc(C=C(C#N)C#N)cc3)cc2)cc1`, the photoluminescence quantum yield (in ClCCl) is reported as 0.3.
Work on `COc1ccc(C2=[N+]3C(=Nc4c(-c5ccccc5)cc(-c5ccc(OC)cc5)n4[B-]3(F)F)C(c3ccccc3)=C2)cc1` yielded a photoluminescence quantum yield (in ClC(Cl)Cl) of 0.36 and a photoluminescence quantum yield (in ClCCl) of 0.36.
`COc1ccc(C2=[O+][B-](F)(F)OC(c3ccc4c(c3)Cc3ccccc3-4)=C2)cc1` gave a photoluminescence quantum yield (in CC#N) of 0.94.
Molecule `CC[n+]1nc2cc3c4c(c2c2cc(C)ccc21)CCCN4CCC3` has a photoluminescence quantum yield (in O) of 0.27.
Molecule `CC(=O)OCCN1C(=O)c2cccc3c(Oc4ccccc4C)ccc(c23)C1=O` has a photoluminescence quantum yield (in ClC(Cl)Cl) of 0.12.
With `CC(C)(C)OC(=O)/C=C/C1=CC2=C(c3ccccc3)c3cccn3[B-](F)(F)[N+]2=C1` the photoluminescence quantum yield (in ClCCl) was 0.1.
For `Cc1cc(C)c2cc3cc(C)ncc3cc2c1`, the photoluminescence quantum yield (in CCO) was 0.44.
`COc1ccc2c(-c3nc(-c4cccc(Br)c4)no3)cc(=O)oc2c1` gave a photoluminescence quantum yield (in CCO) of 0.41 and a photoluminescence quantum yield (in ClC(Cl)Cl) of 0.33.
`CCCCOc1ccc(-c2cc3c(o2)c(-c2ccc(OCCCC)cc2)c2n3[B-](F)(F)[N+]3=Cc4c(-c5ccc(OCCCC)cc5)c5oc(-c6ccc(OCCCC)cc6)cc5n4[B-](F)(F)[N+]3=C2)cc1` gave a photoluminescence quantum yield (in C1CCOC1) of 0.44, a photoluminescence quantum yield (in CN(C)C=O) of 0.32 and a photoluminescence quantum yield (in CS(C)=O) of 0.3. For the same molecule, the photoluminescence quantum yield (in Cc1ccccc1) was 0.37, the photoluminescence quantum yield (in ClC(Cl)Cl) was 0.41 and the photoluminescence quantum yield (in ClCCl) was 0.4.
`CCOC(=O)CC[N+]1=c2cc3c(cc2CCC1)=Cc1c(c2cc4c5c(c2oc1=O)CCCN5CCC4)O3` showed a photoluminescence quantum yield (in CC#N) of 0.024, a photoluminescence quantum yield (in CO) of 0.017 and a photoluminescence quantum yield (in ClCCl) of 0.125. It also gave a photoluminescence quantum yield (in O) of 0.002.
`CCCCC1(CCCC)c2cc(C#Cc3ccc4ccc5cccc6ccc3c4c56)ccc2-c2ccc(N(c3ccccc3)c3ccccc3)cc21` showed a photoluminescence quantum yield (in Cc1ccccc1) of 0.72.
With `C(#Cc1cccc2ccccc12)c1ncc(-c2ccccc2)o1` the photoluminescence quantum yield (in ClCCl) was 0.28.
`CC(C)(C)NC(=O)c1cc2ccc3cccc4ccc(c1C(=O)NC(C)(C)C)c2c34` showed a photoluminescence quantum yield (in ClC(Cl)Cl) of 0.39.
With `COc1ccc(C2=Cc3ccccc3[Si]2(c2ccccc2)c2ccccc2)cc1` the photoluminescence quantum yield (in ClCCl) was 0.99.
For `Brc1ccc(/C=C/c2ccncn2)cc1`, the photoluminescence quantum yield (in ClCCl) was 0.01.
With `C[Si](C)(C)C#CC(C#C[Si](C)(C)C)=Cc1ccc(C=C(C#C[Si](C)(C)C)C#C[Si](C)(C)C)s1` the photoluminescence quantum yield (in ClC(Cl)Cl) was 0.01.
For `CN(C)c1ccc(/C=C/c2cc(/C=C/c3ccc(N(C)C)cc3)nc(N)n2)cc1`, the photoluminescence quantum yield (in Cc1ccccc1) was 0.65 and the photoluminescence quantum yield (in ClC(Cl)Cl) was 0.55.
For `CC1=[N+]2C(=Cc3ccc(C)n3[B-]2(F)F)C=C1c1cc2n(c1)[B-](F)(F)[N+]1=CC=CC1=C2c1c(C)cc(C)cc1C`, the photoluminescence quantum yield (in C1CCCCC1) was 0.98 and the photoluminescence quantum yield (in CCOC(C)=O) was 0.11.
For `c1ccc(-c2nc(-c3ccccc3)n3ccccc23)cc1`, the photoluminescence quantum yield (in ClC(Cl)Cl) was 0.14 and the photoluminescence quantum yield (in ClCCl) was 0.217.
For `O=c1c2ccccc2n(-c2ccc(-c3ccc(-n4c5ccccc5c5ccccc54)cc3)cc2)c2ccccc12`, the photoluminescence quantum yield (in ClCCl) was 0.28.
For `CN(C)CCN(Cc1c2ccccc2c(CN(CCN(C)C)c2ccc([N+](=O)[O-])cc2[N+](=O)[O-])c2ccccc12)c1ccc([N+](=O)[O-])cc1[N+](=O)[O-]`, the photoluminescence quantum yield (in C1CCOC1) was 0.0052, the photoluminescence quantum yield (in CC#N) was 0.00153 and the photoluminescence quantum yield (in CC(C)=O) was 0.0012. For the same molecule, the photoluminescence quantum yield (in CCO) was 0.0136, the photoluminescence quantum yield (in CN(C)C=O) was 0.00067 and the photoluminescence quantum yield (in CO) was 0.0387.
In the case of `F[B-]1(F)n2c(nc(Br)c2Br)-c2cccc[n+]21`, the photoluminescence quantum yield (in C1CCCCC1) is reported as 0.47, the photoluminescence quantum yield (in C1CCOC1) is reported as 0.32 and the photoluminescence quantum yield (in C1COCCO1) is reported as 0.35. The photoluminescence quantum yield (in CC#N) was 0.32, the photoluminescence quantum yield (in CCCCCC) was 0.45 and the photoluminescence quantum yield (in CO) was 0.31. For the same molecule, the photoluminescence quantum yield (in ClC(Cl)Cl) was 0.41.
For `Cc1ccc(C2=C3C=CC(Nc4ccccc4)=[N+]3[B-](F)(F)n3c(Nc4ccccc4)ccc32)cc1`, the photoluminescence quantum yield (in CO) was 0.45.
For `CCCCc1cc(-c2cccc(COC)c2)oc1-c1cccc(COC)c1`, the photoluminescence quantum yield (in ClC(Cl)Cl) was 0.87.
With `CCN(CC)c1ccc2c(c1)oc(=O)c1c(=O)oc3cc(C#Cc4ccc(N(C)C)cc4)ccc3c12` the photoluminescence quantum yield (in ClCCl) was 0.04.
With `C[P+](c1c2ccccc2cc2ccccc12)(c1c2ccccc2cc2ccccc12)c1c2ccccc2cc2ccccc12` the photoluminescence quantum yield (in C1CCOC1) was 0.0077.
`Cc1cc(C)c(C2=C3C=C(/C=C/C(=O)OC(C)(C)C)C=[N+]3[B-](F)(F)n3cc(/C=C/C(=O)OC(C)(C)C)cc32)c(C)c1` showed a photoluminescence quantum yield (in ClCCl) of 0.4.
In the case of `CC(C)(C)NS(=O)(=O)c1ccc2c(c1)C(=O)/C(=C1\Sc3ccc(S(=O)(=O)NC(C)(C)C)cc3C1=O)S2`, the photoluminescence quantum yield (in C1COCCO1) is reported as 0.611, the photoluminescence quantum yield (in CN(C)C=O) is reported as 0.352 and the photoluminescence quantum yield (in CS(C)=O) is reported as 0.009.
`F[B-]1(F)OC(c2ccc(N3CCCCC3)cc2)=Cc2cccc[n+]21` gave a photoluminescence quantum yield (in ClC(Cl)Cl) of 0.612.
Work on `Nc1ncnc2c1c(-c1ccc3ccccc3c1)nn2[C@H]1C[C@H](O)[C@@H](CO)O1` yielded a photoluminescence quantum yield (in C1COCCO1) of 0.11, a photoluminescence quantum yield (in CC#N) of 0.1 and a photoluminescence quantum yield (in CC(C)O) of 0.16. The photoluminescence quantum yield (in CCO) was 0.14, the photoluminescence quantum yield (in CCOC(C)=O) was 0.08 and the photoluminescence quantum yield (in CN(C)C=O) was 0.13. For the same molecule, the photoluminescence quantum yield (in CO) was 0.14, the photoluminescence quantum yield (in CS(C)=O) was 0.15 and the photoluminescence quantum yield (in OCC(O)CO) was 0.11. It also gave a photoluminescence quantum yield (in OCCO) of 0.21.
Molecule `CCCCN1C(=O)c2cc(Oc3ccc(C(C)(C)C)cc3)c3c4c(Oc5ccc(C(C)(C)C)cc5)cc5c(=O)[nH]/c(=C\c6ccccn6)c6cc(Oc7ccc(C(C)(C)C)cc7)c(c7c(Oc8ccc(C(C)(C)C)cc8)cc(c2c37)C1=O)c4c56` has a photoluminescence quantum yield (in C1CCOC1) of 0.336, a photoluminescence quantum yield (in Cc1ccccc1) of 0.408 and a photoluminescence quantum yield (in ClCCl) of 0.421.
`CC1=C(C#Cc2ccc(N(c3ccccc3)c3ccccc3)cc2)C(C)=[N+]2C1=C(c1ccccc1)c1c(C)c(C#Cc3ccc(N(c4ccccc4)c4ccccc4)cc3)c(C)n1[B-]2(F)F` showed a photoluminescence quantum yield (in C1CCOC1) of 0.31.
With `CN(C)c1ccc(-c2nc(-c3ccc(N(C)C)cc3)c3ccccc3n2)cc1` the photoluminescence quantum yield (in ClCCl) was 0.8.
`c1ccc(-c2nc(-c3ccccc3)nc(-n3c4ccccc4c4cc(-n5c6ccccc6c6ccccc65)ccc43)n2)cc1` gave a photoluminescence quantum yield (in O=P(c1ccccc1)(c1ccccc1)c1ccccc1Oc1ccccc1P(=O)(c1ccccc1)c1ccccc1) of 0.62.
`CC[Si](C#Cc1c2c(=O)c3ccccc3c2c(C#C[Si](CC)(CC)CC)c2c(=O)c3ccccc3c12)(CC)CC` showed a photoluminescence quantum yield (in ClC(Cl)Cl) of 0.08.
For `Cc1c2c(nc3ccccc13)-c1cc3c(cc1CC2)-c1nc2ccccc2c(C)c1CC3`, the photoluminescence quantum yield (in ClC(Cl)Cl) was 0.435.
`CCn1c2c(-c3cccs3)cc(C(C)(C)C)cc2c2cc(C(C)(C)C)cc(-c3cccs3)c21` showed a photoluminescence quantum yield (in ClCCl) of 0.064.
With `Cc1cc(N(C)C)ccc1C1=C2C=CC(=[N+](C)C)C=C2[Si](C)(C)c2cc(N(C)C)ccc21` the photoluminescence quantum yield (in O) was 0.001.
Molecule `CCC1(CC)c2cc(B(c3c(C)cc(C)cc3C)c3c(C)cc(C)cc3C)ccc2-c2c1c1c(c3c2C(CC)(CC)c2cc(N(c4ccccc4)c4ccccc4)ccc2-3)C(CC)(CC)c2cc(B(c3c(C)cc(C)cc3C)c3c(C)cc(C)cc3C)ccc2-1` has a photoluminescence quantum yield (in C1CCOC1) of 0.2.
